From patent publication US11040981B2, “Pyrrolotriazine compounds and methods of inhibiting TAM kinases” (Syros Pharmaceuticals, Inc., priority 2017, dated 2021) come the findings set out here.

A value given as a limit tells only on which side of the number the result lay.

One test addresses T1, TYRO3 (Homo sapiens, UniProt Q06418).
T1 sequence (Q06418 41-890): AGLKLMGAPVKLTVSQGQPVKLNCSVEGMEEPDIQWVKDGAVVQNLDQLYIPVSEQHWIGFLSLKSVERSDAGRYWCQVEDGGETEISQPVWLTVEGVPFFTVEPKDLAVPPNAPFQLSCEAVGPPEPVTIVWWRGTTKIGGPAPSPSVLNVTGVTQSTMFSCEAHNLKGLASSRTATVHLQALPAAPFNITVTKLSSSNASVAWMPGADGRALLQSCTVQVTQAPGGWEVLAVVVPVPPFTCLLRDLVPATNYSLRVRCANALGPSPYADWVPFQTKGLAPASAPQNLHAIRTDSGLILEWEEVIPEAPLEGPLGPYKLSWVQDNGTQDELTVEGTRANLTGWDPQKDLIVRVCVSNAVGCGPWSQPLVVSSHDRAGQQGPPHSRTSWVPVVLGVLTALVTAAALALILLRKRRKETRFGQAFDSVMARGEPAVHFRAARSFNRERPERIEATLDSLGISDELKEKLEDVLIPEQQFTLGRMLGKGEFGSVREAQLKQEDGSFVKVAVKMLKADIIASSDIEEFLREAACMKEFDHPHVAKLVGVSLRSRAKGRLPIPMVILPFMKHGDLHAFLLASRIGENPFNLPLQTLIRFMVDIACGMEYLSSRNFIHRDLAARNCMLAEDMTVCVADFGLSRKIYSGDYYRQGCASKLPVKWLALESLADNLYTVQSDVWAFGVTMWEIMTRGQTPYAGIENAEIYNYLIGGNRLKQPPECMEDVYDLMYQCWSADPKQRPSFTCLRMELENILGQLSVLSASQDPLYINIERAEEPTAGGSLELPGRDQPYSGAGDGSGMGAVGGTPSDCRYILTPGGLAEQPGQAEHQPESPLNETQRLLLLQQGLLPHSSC
In words: TR-FRET kinase activity assay, TYRO3. To be noted: ATP at Km, 60 minutes. The class given is biochemical. The essentials:
(§1)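 Each kinase phosphorylated a fluorescent-labelled tyrosine peptide in 50 mM HEPES pH 7.5, 10 mM MgCl2, 1 mM EGTA, 0.01% Brij 35, 1 mM DTT at RT, with ATP at Km for that enzyme. After 60 min, EDTA quench and Eu-anti-phosphotyrosine antibody (30 min, dark); IC50 from TR-FRET decrease.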
A general note: Time-resolved FRET reads energy transfer from a long-lived donor to a nearby acceptor.

For the next test, the target named is T2, MERTK (Homo sapiens, UniProt Q12866).
T2 sequence (Q12866 21-999): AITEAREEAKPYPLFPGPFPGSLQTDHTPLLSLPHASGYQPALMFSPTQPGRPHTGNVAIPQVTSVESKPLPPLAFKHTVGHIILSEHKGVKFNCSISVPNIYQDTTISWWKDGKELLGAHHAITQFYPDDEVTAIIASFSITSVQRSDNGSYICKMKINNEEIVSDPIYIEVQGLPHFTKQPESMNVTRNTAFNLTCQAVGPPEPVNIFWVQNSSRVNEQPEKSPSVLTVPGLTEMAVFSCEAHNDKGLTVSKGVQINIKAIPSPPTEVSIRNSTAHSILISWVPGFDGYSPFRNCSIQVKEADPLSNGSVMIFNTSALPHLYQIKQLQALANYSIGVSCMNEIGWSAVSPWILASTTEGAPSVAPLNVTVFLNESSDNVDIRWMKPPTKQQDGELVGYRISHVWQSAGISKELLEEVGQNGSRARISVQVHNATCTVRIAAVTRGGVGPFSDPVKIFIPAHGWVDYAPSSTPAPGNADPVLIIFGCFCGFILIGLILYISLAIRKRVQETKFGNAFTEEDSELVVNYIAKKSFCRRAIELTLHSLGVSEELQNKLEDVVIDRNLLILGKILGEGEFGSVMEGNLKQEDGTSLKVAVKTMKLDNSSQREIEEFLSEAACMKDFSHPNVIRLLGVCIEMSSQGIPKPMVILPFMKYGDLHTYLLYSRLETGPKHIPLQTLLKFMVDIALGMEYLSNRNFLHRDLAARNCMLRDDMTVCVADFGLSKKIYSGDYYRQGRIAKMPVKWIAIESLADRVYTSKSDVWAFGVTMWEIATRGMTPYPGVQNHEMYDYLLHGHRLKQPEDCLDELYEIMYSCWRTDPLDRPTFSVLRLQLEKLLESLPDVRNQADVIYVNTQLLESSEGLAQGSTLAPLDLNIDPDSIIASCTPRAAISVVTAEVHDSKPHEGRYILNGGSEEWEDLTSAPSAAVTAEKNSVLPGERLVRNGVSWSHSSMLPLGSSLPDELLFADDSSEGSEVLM
The test is described as follows: TR-FRET kinase activity assay, MERTK. In kind it is biochemical. To be noted: for IC50: TR-FRET activity assay, ATP at Km, 60 minutes, read-out: Mer IC50; for FLT3/Mer ratio (FLT3 IC50/Mer IC50): ratio of Mer to FLT3: FLT3 IC50/Mer IC50. The essentials: as §1

`COC[C@H](C)Nc1ncc2c(-c3ccc(N4CCOCC4)nc3)cc([C@H]3CC[C@H](O)CC3)n2n1` [Compound 254] returned an IC50 against TYRO3 of at most 100 nM. At MERTK, the IC50 is at most 100 nM and the “FLT3/Mer ratio (FLT3 IC50/Mer IC50)” value is “+++ (“+++” represents a ratio of >100)”.
For the compound `COC[C@H](C)Nc1ncc2c(-c3cnn(CC(C)(C)O)c3)cc([C@H]3CC[C@H](O)CC3)n2n1` [Compound 264], the IC50 at TYRO3 and on MERTK was at most 100 nM each time. Moreover, the “FLT3/Mer ratio (FLT3 IC50/Mer IC50)” value on MERTK is “+++ (“+++” represents a ratio of >100)”.
Take `COC[C@H](C)Nc1ncc2c(-c3cnn(CC(=O)N4CCN(C)CC4)c3)cc([C@H]3CC[C@H](O)CC3)n2n1` [Compound 240]: the IC50 against TYRO3 and on MERTK was at most 100 nM each time. Also, the “FLT3/Mer ratio (FLT3 IC50/Mer IC50)” value at MERTK is given as “+++ (“+++” represents a ratio of >100)”.
Regarding `COC[C@H](C)Nc1ncc2c(-c3cccc(CN4CCN(C)CC4)c3)cc([C@H]3CC[C@H](O)CC3)n2n1` [Compound 218], the IC50 at TYRO3 and on MERTK was at most 100 nM each time. For the same compound, the “FLT3/Mer ratio (FLT3 IC50/Mer IC50)” value at MERTK is reported as “+++ (“+++” represents a ratio of >100)”.
At TYRO3, `COC[C@H](C)Nc1ncc2c(-c3cnn(C(C)(C)C)c3)cc([C@H]3CC[C@H](O)CC3)n2n1` [Compound 206] returned an IC50 of at most 100 nM. Besides, at MERTK, the IC50 is at most 100 nM and the “FLT3/Mer ratio (FLT3 IC50/Mer IC50)” value was “+++ (“+++” represents a ratio of >100)”.
`COC[C@H](C)Nc1ncc2c(-c3cnn(Cc4cccnc4)c3)cc([C@H]3CC[C@H](O)CC3)n2n1` [Compound 220]: the IC50 against TYRO3 is at most 100 nM. Also, at MERTK, the IC50 was at most 100 nM and the “FLT3/Mer ratio (FLT3 IC50/Mer IC50)” value is reported as “+++ (“+++” represents a ratio of >100)”.
Take `COC[C@H](C)Nc1ncc2c(-c3ccc(CN4CCOCC4)nc3)cc([C@H]3CC[C@H](O)CC3)n2n1` [Compound 230]: the IC50 against TYRO3 and at MERTK was at most 100 nM each time. In addition, the “FLT3/Mer ratio (FLT3 IC50/Mer IC50)” value at MERTK is on record as “+++ (“+++” represents a ratio of >100)”.
Turning to `CNC(=O)c1ccc(-c2cc([C@H]3CC[C@H](O)CC3)n3nc(N[C@@H](C)CC(F)(F)F)ncc23)cn1` [Compound 263], at TYRO3, the IC50 is at most 100 nM. In addition, on MERTK, the IC50 is at most 100 nM; the “FLT3/Mer ratio (FLT3 IC50/Mer IC50)” value was “++ (“++” represents a ratio of between 10 and 100)”.
At TYRO3, `CC(CCOC(F)F)Nc1ncc2c(-c3ccc(CN4CCOCC4)cc3)cc(C3CCC(O)CC3)n2n1` (stereo not drawn) [Compound 255] showed an IC50 of at most 100 nM. For the same compound, at MERTK, the IC50 is at most 100 nM; the “FLT3/Mer ratio (FLT3 IC50/Mer IC50)” value is “++ (“++” represents a ratio of between 10 and 100)”.
On to `CCCCC[C@H](C)Nc1ncc2c(-c3ccc(CN4CCN(C)CC4)cc3)cc([C@H]3CC[C@@H](O)CC3)n2n1` [Compound 105], for which the IC50 at TYRO3 and at MERTK was at most 100 nM throughout. Further, the “FLT3/Mer ratio (FLT3 IC50/Mer IC50)” value at MERTK was “+ (“+” represents a ratio of >2.0 and <10)”.
Take `COC[C@H](C)Nc1ncc2c(-c3cncc(C)c3)cc([C@H]3CC[C@H](O)CC3)n2n1` [Compound 231]: the IC50 against TYRO3 was at most 100 nM. On MERTK, the IC50 was at most 100 nM and the “FLT3/Mer ratio (FLT3 IC50/Mer IC50)” value is reported as “+++ (“+++” represents a ratio of >100)”.
Consider `COC[C@H](C)Nc1ncc2c(-c3ccc(C(=O)N4CCN(C)CC4)nc3)cc([C@H]3CC[C@H](O)CC3)n2n1` [Compound 226], for which the IC50 on TYRO3 is at most 100 nM. Moreover, at MERTK, the IC50 is at most 100 nM and the “FLT3/Mer ratio (FLT3 IC50/Mer IC50)” value was “+++ (“+++” represents a ratio of >100)”.
In turn, `COC[C@H](C)Nc1ncc2c(-c3ccc4c(c3)NC(=O)C4)cc([C@H]3CC[C@H](O)CC3)n2n1` [Compound 249] displayed an IC50 against TYRO3 of at most 100 nM. At MERTK, the IC50 is at most 100 nM and the “FLT3/Mer ratio (FLT3 IC50/Mer IC50)” value is given as “+++ (“+++” represents a ratio of >100)”.
In the case of `COCC(C)Nc1ncc2c(-c3ccc(-c4nnc(C)o4)cc3)cc(C3CCC(O)CC3)n2n1` (stereo not drawn) [Compound 198], on TYRO3, the IC50 was at most 100 nM. For the same compound, on MERTK, the IC50 was at most 100 nM and the “FLT3/Mer ratio (FLT3 IC50/Mer IC50)” value is reported as “+++ (“+++” represents a ratio of >100)”.
Regarding `COCC(C)Nc1ncc2c(-c3cccc(CN4CCC(F)C4)c3)cc(C3CCC(O)CC3)n2n1` (stereo not drawn) [Compound 225], at TYRO3, the IC50 was at most 100 nM. On MERTK, the IC50 is at most 100 nM and the “FLT3/Mer ratio (FLT3 IC50/Mer IC50)” value was “+++ (“+++” represents a ratio of >100)”.
The compound `CCCCC[C@H](C)Nc1ncc2c(NC3CCN(C)CC3)cc([C@H]3CC[C@H](O)CC3)n2n1` [Compound 107] gave an IC50 against TYRO3 of at most 100 nM. Also, at MERTK, the IC50 was at most 100 nM and the “FLT3/Mer ratio (FLT3 IC50/Mer IC50)” value is recorded as “+++ (“+++” represents a ratio of >100)”.
`COC[C@H](C)Nc1ncc2c(-c3cnn(C(F)F)c3)cc([C@H]3CC[C@H](O)CC3)n2n1` [Compound 207] returned an IC50 at TYRO3 of at most 100 nM. Also, on MERTK, the IC50 is at most 100 nM and the “FLT3/Mer ratio (FLT3 IC50/Mer IC50)” value is recorded as “+++ (“+++” represents a ratio of >100)”.
With `COCCn1cc(-c2cc([C@H]3CC[C@H](O)CC3)n3nc(N[C@@H](C)COC)ncc23)cn1` [Compound 209], the IC50 against TYRO3 is at most 100 nM. In addition, at MERTK, the IC50 is at most 100 nM and the “FLT3/Mer ratio (FLT3 IC50/Mer IC50)” value was “+++ (“+++” represents a ratio of >100)”.
`CC(Nc1ncc2c(-c3ccc(CN4CCOCC4)cc3)cc(C3CCC(O)CC3)n2n1)C(F)(F)F` (stereo not drawn) [Compound 202] displayed a 50% inhibitory concentration (IC50) at TYRO3 of at most 100 nM. At MERTK, the IC50 is at most 100 nM and the “FLT3/Mer ratio (FLT3 IC50/Mer IC50)” value was “+++ (“+++” represents a ratio of >100)”.
Take `COC[C@H](C)Nc1ncc2c(-c3cc(C)ccn3)cc([C@H]3CC[C@H](O)CC3)n2n1` [Compound 257]: on TYRO3, the IC50 was 100 to 1000 nM. At MERTK, the IC50 is at most 100 nM and the “FLT3/Mer ratio (FLT3 IC50/Mer IC50)” value is recorded as “+++ (“+++” represents a ratio of >100)”.
With `COC[C@H](C)Nc1ncc2c(-c3cnn([C@@H]4CCOC4)c3)cc([C@H]3CC[C@H](O)CC3)n2n1` [Compound 242], on TYRO3, the IC50 was at most 100 nM. On MERTK, the IC50 was at most 100 nM and the “FLT3/Mer ratio (FLT3 IC50/Mer IC50)” value is “+++ (“+++” represents a ratio of >100)”.

The IC50 is the concentration that gives 50% inhibition.
